Patent publication US12465791B2, “Oral care composition” (Colgate-Palmolive Company, priority 2014, dated 2025)

Key:
HSP 27 = HSP 27 production in scratched (damaged) human gingival tissue, level in cell supernatant; type: cell-based; details: for HSP27 concentration: scratched gingival tissue, arginine 50 ppm in culture medium, 37° C.
Method: A scratching protocol was used to damage and stress human gingival tissue (MatTek Corporation). Arginine, at a dose of 50 ppm was applied to the culture medium containing the tissue. The treated tissue was incubated at 37° C. to promote tissue healing. Cell supernatant was collected at various time points and the level of HSP 27 was measured.

Human keratinocytes = assay: Gap closure after scratch, migration of human keratinocytes; type: cell-based; details: 100 ppm Arginine in DMEM
Method: Human keratinocytes are cultured in DMEM medium supplemented with 10% FBS and 1% of antibiotic at 37° C. under a 5% CO2 atmosphere in petri dishes. Once the cells are 80-90% confluent, a scratch is made horizontally and a scratch is made vertically across the layer of cells. 1 ml of a test solution is added to the culture, and the cells are further incubated and monitored by photomicroscopy to evaluate the closure of the gap created by the scratches. The test solutions compared are 100 ppm Arginine in DMEM medium and untreated DMEM medium. The results are shown in Table 3 below, expressed as the average width of the gap as a percentage of the initial width of the gap (at 0 hours).
A second gap closure experiment is also performed which compares the results obtained when 100 ppm Arginine in DMEM is used against 1:500 v/v dilutions of commercial mouthwash formulations. In one test, a 0.8% w/v arginine mouthwash formulation is used. In a second test, a 0.075% w/v cetylpyridinium chloride (CPC) mouthwash formulation is used as a negative control. CPC is common antibacterial agent and preservative used in oral care products.

HSP-27 = assay: Intracellular HSP 27 expression in scratched keratinocytes (ELISA); type: cell-based, human; details: for HSP-27, intracellular: scratched keratinocytes, 50 ppm Arginine
Method: Human keratinocytes are cultured in DMEM medium supplemented with 10% FBS and 1% of antibiotic at 37° C. under a 5% CO2 atmosphere in petri dishes. Once the cells are 80-90% confluent, a scratch is made horizontally and a scratch is made vertically across the layer of cells. […] […] The cell suspension is then homogenized with metal beads for 5 minutes and then analyzed for HSP27 using ELISA. In both untreated and arginine treated cells, scratching induces a strong increase in intracellular HSP-27 expression at one hour which declines at 4 hours. […] Without being bound by theory, Applicants believe that it is this initial burst of HSP-27 expression at the time of physical injury that contributes to improved wound healing.

Q: Which results are given for `N=C(N)NCCCC(N)C(=O)O` (stereo not shown) [Arginine, 2-amino-5-guanidinopentanoic acid]?
A: production of HSP 27 compared to the untreated, scratched tissue (HSP 27; arginine 50 ppm, at 1 hour and at 4 hours): significantly accelerated; HSP27 concentration (HSP 27; incubation time 0 hr): 22.78 ng/mL; HSP27 concentration (HSP 27; incubation time 1 hr): 218.76 ng/mL; HSP27 concentration (HSP 27; incubation time 4 hr): 359.72 ng/mL; speed of gap closure compared to the DMEM control (Human keratinocytes): significantly faster; % Gap Closure (Human keratinocytes; 24 hr after scratch): 21%; % Gap Closure (Human keratinocytes; 48 hr after scratch): 63%; % Gap Closure (Human keratinocytes; 144 hr after scratch): 100%; % Gap Closure (Human keratinocytes; second experiment, 48 hr): 75%; intracellular HSP-27 expression compared to untreated scratched cells (HSP-27; 50 ppm arginine): significantly higher expression; HSP-27, intracellular (HSP-27; time 0 hr): 17.11 ng/mL; HSP-27, intracellular (HSP-27; time 1 hr): 64.04 ng/mL; HSP-27, intracellular (HSP-27; time 2 hr as printed in the table): 45.12 ng/mL
